Laboratory results taken from PubChem BioAssay (NCI).
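96-well plates; 48 h exposure; 5 concentrations. Endpoints by linear interpolation between flanking doses. Not reached: highest tested concentration assigned. GI50: concentration for 50% inhibition of growth. At the TGI there is no net growth.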

Tests used:
Assay in all cases: NCI anticancer screen, dose series, 48 h
[1] = tested on: DU-145 prostate
[2] = tested on: CCRF-CEM leukemia
[3] = tested on: UO-31 renal
[4] = tested on: HS 578T breast
[5] = tested on: SW-620 colon
[6] = tested on: NCI-H460 lung
[7] = tested on: NCI-H226 lung
[8] = tested on: OVCAR-5 ovarian
[9] = tested on: OVCAR-3 ovarian
[10] = tested on: EKVX NSCLC

## COc1ccc(-c2nn(-c3cccc(NC(=O)c4ccc5c(c4)OCCO5)c3)cc2-c2ccncc2)cc1Cl
[1]
  GI50: 3.99 µM
  TGI: 24.9 µM
[2]
  GI50: 1.68 µM
  TGI: 10.3 µM
[3]
  GI50: 2.57 µM
  TGI: 17.3 µM
[4]
  GI50: 1.61 µM
  TGI: 8.13 µM
[5]
  GI50: 2.62 µM
  TGI: 19.2 µM
[6]
  GI50: 2.67 µM
  TGI: 15.6 µM
[7]
  GI50: 3.3 µM
  TGI: > 100 µM
[8]
  GI50: 5.19 µM
  TGI: 29.8 µM

## O=S(=O)(O)c1ccc(-c2nnc(-c3ccccn3)nc2-c2ccc(S(=O)(=O)O)o2)o1
[1]
  TGI: > 100 µM
[9]
  TGI: > 100 µM
[3]
  TGI: > 100 µM
[4]
  TGI: > 100 µM
[10]
  TGI: > 100 µM
[5]
  TGI: > 100 µM
[6]
  TGI: > 100 µM
[7]
  TGI: > 100 µM
[8]
  TGI: > 100 µM

## O=C1N(c2ccccc2)C(=O)C2(SC=NN2Cc2ccccc2)N1c1ccccc1 (stereo not given)
[9]
  TGI: > 100 µM
[2]
  TGI: > 100 µM
[3]
  TGI: > 100 µM
[10]
  TGI: > 100 µM
[5]
  TGI: > 100 µM
[6]
  TGI: > 100 µM
[7]
  TGI: > 100 µM

## COc1ccc(N=Nc2c(-c3ccccc3)nn(C(=O)CC(=O)Nc3cccc(Cl)c3)c2-c2ccccc2)cc1
[9]
  TGI: > 100 µM
[2]
  TGI: > 100 µM
[3]
  TGI: > 100 µM
[10]
  TGI: > 100 µM
[5]
  TGI: > 100 µM
[6]
  TGI: > 100 µM
[7]
  TGI: 68.1 µM
[8]
  TGI: > 100 µM

## CC1(C)CCc2cc3c(cc2O1)OCC1c2cc4c(cc2OC31)OCO4 (stereo not given)
[9]
  TGI: > 100 µM
[2]
  TGI: > 100 µM
[3]
  TGI: > 100 µM
[10]
  TGI: > 100 µM
[5]
  TGI: > 100 µM
[6]
  TGI: > 100 µM
[7]
  TGI: > 100 µM
[8]
  TGI: > 100 µM

## O=c1cccccc1NCCCCCCNc1cccccc1=O
[9]
  TGI: > 100 µM
[2]
  TGI: > 100 µM
[3]
  TGI: > 100 µM
[10]
  TGI: > 100 µM
[5]
  TGI: > 100 µM
[6]
  TGI: > 100 µM
[7]
  TGI: > 100 µM
[8]
  TGI: > 100 µM

## Cc1cccc(C(=O)/C=C/SC(=NC#N)SCc2ccccc2)c1
[1]
  GI50: 19.7 µM
  TGI: 46.4 µM
[9]
  GI50: 16.7 µM
  TGI: 89.7 µM
[2]
  GI50: 3.23 µM
  TGI: > 100 µM
[3]
  GI50: 30.9 µM
  TGI: 89 µM
[4]
  GI50: 27.9 µM
  TGI: 94.8 µM
[10]
  GI50: 28 µM
  TGI: 63.2 µM
[5]
  GI50: 6.45 µM
  TGI: > 100 µM
[6]
  GI50: 36.5 µM
  TGI: > 100 µM
[8]
  GI50: 19.4 µM
  TGI: 38.1 µM

## COc1cccc2c1-c1c(c3ccc([N+](=O)[O-])cc3c(=O)n1CCCCl)C2=O
[9]
  GI50: > 50 µM
  TGI: > 50 µM
[2]
  GI50: 1.5 µM
  TGI: > 50 µM
[3]
  GI50: 1.73 µM
  TGI: > 50 µM
[4]
  GI50: 25.2 µM
  TGI: > 50 µM
[10]
  GI50: > 50 µM
  TGI: > 50 µM
[5]
  GI50: 0.286 µM
  TGI: > 50 µM
[6]
  GI50: 0.972 µM
  TGI: > 50 µM
[7]
  GI50: 5.82 µM
  TGI: 41.5 µM
[8]
  GI50: > 50 µM
  TGI: > 50 µM

## CO/N=C(\C)c1cccc(Nc2cc(-c3ccccc3)nc3c(O)cccc23)c1
[1]
  GI50: 9.2 µM
  TGI: 28 µM
[9]
  GI50: 2.34 µM
  TGI: 7.12 µM
[2]
  GI50: 2.57 µM
  TGI: 8.74 µM
[3]
  GI50: 4.58 µM
  TGI: 60.5 µM
[4]
  GI50: 5.31 µM
  TGI: 38.8 µM
[10]
  GI50: 17.4 µM
  TGI: 59.6 µM
[5]
  GI50: 4.5 µM
  TGI: 19.6 µM
[7]
  GI50: 19.8 µM
  TGI: > 100 µM
[8]
  GI50: 20.3 µM
  TGI: 60.7 µM
